Assay results: patent US20040191240A1, “Composition and method for nerve regeneration” (priority 2003, published 2004)

Assays:
N1E-115 cells [1] = experiment: Growth, cyclin D3 and pRb in N1E-115 cells; type: cell-based; conditions: for phosphorylation state of pRb / protein level of cyclin D3: Western blot; for growth of N1E-115 cells: after transfection
Description: (§1) NIH3T3 cells, N1E-115 cells and 293T cells were maintained in DMEM containing 10% fetal bovine serum. Lipofectamine 2000 (Invitrogen) was used for transfection. For the stress fiber formation assay, NIH3T3 cells were cultured in serum-free medium for 16 hours after transfection. Stress fiber formation was evoked by incubating the cells with 10% serum for 10 minutes. Hippocampal neurons were prepared from […], as previously described (Neumann, H. et al., Science. 269:549-552, 1995). Briefly, hippocampi were dissected and the meninges removed. The trimmed tissue was dissociated by trituration. The dissociated cells were plated on dishes pre-coated with poly-L-lysine (Sigma), and cultured in DMEM containing 10% fetal bovine serum for 24 hours. Then, the medium was replaced with DMEM with B27 supplement (Invitrogen), and the cells were transfected with GFP or GFP-ΔNLS-p21. Neuronal morphology was estimated at 24 hours after the transfection.

N1E-115 cells [2] = experiment: Morphological analysis of N1E-115 cells; type: cell-based; conditions: for cell population with long neurites / neurite formation: transfection, 48 h, Y-27632 10 μM for 30 minutes
Description: N1E-115 cells were transfected with GFP, GFP-full-p21 or GFP-ΔNLS-p21, and cultured in serum-starved condition for 5 hours. Then, the medium was replaced with DMEM containing 10% fetal bovine serum. The cells were fixed at 48 hours after transfection. The morphology of the cells was categorized into 3 groups; neurite positive cells, round cells and the other cells. The cells with longer neurites than their soma were defined as neurite positive cells. The other cells had various features including microspikes, ruffles and a flattened appearance.

myc-Rho-kinase [3] = target: T1, myc-Rho-kinase (Bos taurus, UniProt Q28021); experiment: Rho-kinase kinase assay with lysates of transfected 293T cells; type: cell-based
T1 sequence (Q28021 whole entry): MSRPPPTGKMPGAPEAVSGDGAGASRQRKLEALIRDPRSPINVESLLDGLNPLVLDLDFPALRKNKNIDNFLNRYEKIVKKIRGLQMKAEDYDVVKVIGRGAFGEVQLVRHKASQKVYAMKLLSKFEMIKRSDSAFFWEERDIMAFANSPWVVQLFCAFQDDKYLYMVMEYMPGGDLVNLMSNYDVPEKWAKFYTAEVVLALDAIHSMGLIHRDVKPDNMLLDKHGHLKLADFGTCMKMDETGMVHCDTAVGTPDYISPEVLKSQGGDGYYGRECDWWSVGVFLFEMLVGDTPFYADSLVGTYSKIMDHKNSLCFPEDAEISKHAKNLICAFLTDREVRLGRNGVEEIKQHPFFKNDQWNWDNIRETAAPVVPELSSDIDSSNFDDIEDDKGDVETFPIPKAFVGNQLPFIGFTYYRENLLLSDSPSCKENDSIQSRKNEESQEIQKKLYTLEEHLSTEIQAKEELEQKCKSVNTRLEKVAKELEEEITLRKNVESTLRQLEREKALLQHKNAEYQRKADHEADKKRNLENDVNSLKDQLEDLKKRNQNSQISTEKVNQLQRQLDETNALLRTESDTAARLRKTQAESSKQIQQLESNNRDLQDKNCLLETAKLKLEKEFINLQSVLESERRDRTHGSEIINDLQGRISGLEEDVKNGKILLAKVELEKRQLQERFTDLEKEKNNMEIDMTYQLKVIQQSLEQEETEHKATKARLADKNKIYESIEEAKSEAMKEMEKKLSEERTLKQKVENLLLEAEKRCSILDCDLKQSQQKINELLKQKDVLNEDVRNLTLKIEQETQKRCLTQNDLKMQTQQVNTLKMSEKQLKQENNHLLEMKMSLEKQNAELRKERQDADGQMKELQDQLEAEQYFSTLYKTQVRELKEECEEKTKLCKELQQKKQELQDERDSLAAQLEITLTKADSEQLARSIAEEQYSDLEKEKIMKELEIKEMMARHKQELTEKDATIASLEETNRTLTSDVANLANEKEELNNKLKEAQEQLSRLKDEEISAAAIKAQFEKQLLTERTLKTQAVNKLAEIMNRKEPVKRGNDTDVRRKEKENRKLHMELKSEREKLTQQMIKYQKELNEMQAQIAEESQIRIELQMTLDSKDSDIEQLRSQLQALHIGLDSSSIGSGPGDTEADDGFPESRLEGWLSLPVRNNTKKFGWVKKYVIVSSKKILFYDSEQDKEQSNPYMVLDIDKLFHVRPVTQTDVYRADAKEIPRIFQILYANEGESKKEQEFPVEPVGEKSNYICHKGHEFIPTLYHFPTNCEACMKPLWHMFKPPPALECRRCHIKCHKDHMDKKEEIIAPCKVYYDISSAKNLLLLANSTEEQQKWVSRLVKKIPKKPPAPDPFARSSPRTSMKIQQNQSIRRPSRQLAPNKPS
Description: Cells were lysed with lysis buffer (50 mM Tris-HCl (pH 7.5), 150 mM NaCl, 10% glycerol, 1% Nonidet-P40 and protease inhibitor cocktail). The kinase assay was carried out using the lysates.

[4] = target: T2, association of p75 with Rho GDI (Homo sapiens, UniProt P08138); experiment: Co-precipitation of p75 with recombinant GST-Rho GDI or GST-RhoA; type: binding; conditions: for direct binding of recombinant protein to p75 precipitated from transfected 293T cells: RhoA in the GDP-bound, GTP-bound or nucleotide-depleted state
T2 construct: host or cells: 293T (p75)
T2 sequence (P08138 29-427): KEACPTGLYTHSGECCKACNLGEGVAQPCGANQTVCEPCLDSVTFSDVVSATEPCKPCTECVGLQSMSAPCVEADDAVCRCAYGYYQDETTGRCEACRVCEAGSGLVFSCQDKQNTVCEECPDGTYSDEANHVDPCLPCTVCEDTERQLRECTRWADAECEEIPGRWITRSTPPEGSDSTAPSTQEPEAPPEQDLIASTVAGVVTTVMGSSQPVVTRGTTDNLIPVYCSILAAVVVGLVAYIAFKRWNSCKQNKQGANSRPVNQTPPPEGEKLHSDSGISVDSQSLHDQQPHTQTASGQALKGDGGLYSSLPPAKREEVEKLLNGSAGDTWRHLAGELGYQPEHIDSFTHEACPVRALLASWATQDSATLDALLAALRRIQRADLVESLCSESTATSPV

[5] = target: T3, recombinant human p75-Fc chimera (Homo sapiens, UniProt P08138); experiment: Co-precipitation of recombinant p75 and gangliosides; type: binding; conditions: precipitation with protein A sepharose, Western blot
T3 construct: Recombinant p75 extracellular domain fused to Fc purified from Sf21 cells; purchased Genzyme-Techne; host or cells: Sf21
T3 sequence (P08138 29-250 limits assumed): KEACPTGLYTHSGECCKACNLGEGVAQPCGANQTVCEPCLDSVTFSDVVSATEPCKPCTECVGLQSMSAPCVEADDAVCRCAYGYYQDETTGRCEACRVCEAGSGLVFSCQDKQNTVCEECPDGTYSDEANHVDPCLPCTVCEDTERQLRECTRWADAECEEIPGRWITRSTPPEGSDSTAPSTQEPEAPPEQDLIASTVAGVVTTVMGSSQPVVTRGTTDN
Description: Recombinant human p75-Fc chimera (1 μg; Genzyme-Techne) and 1 μg of purified ganglioside GT1b (>98% purity, Seikagaku Co.) were incubated in 200 μl 0.025% Tween20/PBS for 2 h, and p75 was precipitated using proteinA sepharose (Amersham Pharmacia Biotech). The resultant precipitates were electrophoretically transferred to polyvinylidene difluoride membranes after SDS-PAGE with 7% gels and were immunoblotted with anti GT1b antibody (IgM, Seikagaku Co.) or anti p75 antibody.

[6] = target: T4, interaction of p75 with Rho GDI (Homo sapiens, UniProt P08138); experiment: Co-immunoprecipitation of p75 with Rho GDI or RhoA in transfected N1E-115 cells; type: cell-based; conditions: N1E-115 cells transfected with FLAG-tagged p75; Nogo peptide 4 μM, MAG-Fc 25 μg/ml, NGF 100 ng/ml
T4 construct: expressed in transfected cells; host or cells: N1E-115
T4 sequence (P08138 29-427): T2 sequence (P08138 29-427)

RhoA = experiment: Affinity-precipitation of GTP-RhoA in cerebellar neurons; type: cell-based, mouse; conditions: MAG-Fc 25 μg/ml, Nogo peptide 4 μM
Description: 293 cells were transfected with pcDNA3 vectors containing wild type RhoA whose NH2-terminus is tagged with HA (Yamashita, T. et al., Neuron. 24:585-593, 1999) and/or full-length human p75 by lipofection using Lipofectamine 2000 (Gibco BRL). Cerebellar neurons from P9 mice were isolated as described previously (Cai et al, Neuron, 22:89-101, 1999). Cells were lysed in 50 mM Tris (pH 7.5), 1% Triton X-100, 0.5% sodium deoxycholate, 0.1% SDS, 500 mM NaCl, 10 mM MgCl2, with leupeptin and aprotinin, each at 10 μg/ml. Cell lysates were clarified by centrifugation at 13,000×g at 4° C. for 10 min, and the supernatants were incubated with the 20 μg of GST-Rho binding domain of Rhotekin beads (Upstate Biotech.) at 4° C. for 45 min. The beads were washed 4 times with washing buffer (50 mM Tris (pH 7.5) containing 1% Triton X-100, 150 mM NaCl, 10 mM MgCl2, 10 μg/ml each of leupeptin and aprotinin). Bound Rho proteins were detected by Western blotting using a monoclonal antibody against RhoA (Santa Cruz Biotechnology).
Amino-terminally FLAG-tagged human p75 or the deletion mutants of p75 ICD were cloned into pcDNA3.1 expression plasmid, and were transfected with 293T cells. […] Bound Rho proteins were detected by Western blotting using a monoclonal antibody against RhoA (Santa Cruz Biotechnology).

cerebellar neurons = experiment: Neurite outgrowth assay, post-natal cerebellar neurons; type: cell-based, mouse; conditions: cells transfected with myc-tagged Rho GDI
myc-Rho-kinase [7] = target: T1, myc-Rho-kinase; experiment: Co-immunoprecipitation of p21 constructs and Rho-kinase in 293T cells; type: cell-based; conditions: 293T cells cotransfected
Description: 293T cells were transfected with myc-Rho-kinase in combination with GFP-full-p21 or GFP-ΔNLS-p21. At 48 hours after transfection, the cells were lysed with 1 ml of lysis buffer (50 mM Tris-HCl (pH 7.5), 150 mM NaCl, 10% glycerol, 0.5% Nonidet-P40 including protease inhibitor cocktail tablets (Roche). The cell lysates were centrifuged at 13,000×g for 20 minutes, and the supernatant was collected. Immunoprecipitations were performed for 2 hours at 4° C. using an anti-p21 mouse monoclonal antibody (Santa Cruz Biotechnology) and 0.75 ml of the supernatant. The immunocomplexes were collected with protein G-Sepharose (Amersham Pharmacia Biotech) slurry (50% v/v), washed 4 times with lysis buffer, and subjected to SDS-PAGE. They were transferred to the polyvinylidene difluoride membranes and probed with the anti-myc rabbit polyclonal antibody (Santa Cruz Biotechnology). Interaction of endogenous proteins in N1E-115 cells was assessed in the same way using anti Rho-kinase antibody.

NIH3T3 cells = experiment: Stress fiber formation assay; type: cell-based; conditions: serum-starved 16 hours, 10% serum 10 minutes
Description: as §1

hippocampal neurons = experiment: Neurite outgrowth and branching of hippocampal neurons; type: cell-based; conditions: rat E18, 24 hours after transfection
Description: as §1
Cultures of the hippocampal neurons from rat E18 embryos were used. […] Twenty-four hours after transfection, the cells were fixed and immunolabeled with β-tubulin III. The total neurite length per neuron, the axonal length, defined as the length of the longest neurite per neuron, the number of primary processes originating from the neuronal somata, and the number of branch points per neuron were determined (Neumann, H. et al., J. Neurosci. 22:854-862, 2002).

## C[S+](C)[O-] [DMSO, reference compound]
N1E-115 cells [1]
  phosphorylation state of pRb: hyperphosphorylated pRb became undetectable
  protein level of cyclin D3: strongly increased

## C[C@@H](N)[C@H]1CC[C@H](C(=O)Nc2ccncc2)CC1 [Y-27632, reference compound]
N1E-115 cells [2]
  cell population with long neurites / neurite formation: induced significant neurite formation
myc-Rho-kinase [3]; HEK-293T, Y-27632 10 μM for 30 minutes, read-out: (compared to the original) inhibition of Rho-kinase activity
  inhibition at 10 µM: 51.9%

## CFFRGGFFNHNPRYC [Pep5]
[4]; 1 μM GST-Rho GDI, Pep5 at the indicated concentrations
  association of p75 with Rho GDI: inhibited the association of p75 with Rho GDI dose dependently

## GD1a
[5]
  association of ganglioside with recombinant p75 extracellular domain fused to Fc: did not see any interaction

## GM1
[5]
  association of ganglioside with recombinant p75 extracellular domain fused to Fc: no interaction

## GT1b
[5]
  association of ganglioside with recombinant p75 extracellular domain fused to Fc: binds to p75 in a manner that is SDS-resistant

## NGF: Nerve growth factor [reference compound]
[6]
  interaction of p75 with Rho GDI and RhoA: abolished the interaction of p75 with Rho GDI as well as RhoA
RhoA
  RhoA activity in cerebellar granule neurons from wild type mice (P9): rapidly inhibits RhoA activity

## Rho GDI: Rho GDP dissociation inhibitor; recombinant GST-Rho GDI or myc-tagged Rho GDI over-expressed in neurons
Cerebellar neurons
  inhibitory effects of MAG and the Nogo peptide on neurite outgrowth on over-expression of Rho GDI: abolished these inhibitory effects
[4]
  direct binding of recombinant protein to p75 precipitated from transfected 293T cells: bound to p75

## RhoA: bacterially produced RhoA (GST-RhoA)
[4]
  direct binding of recombinant protein to p75 precipitated from transfected 293T cells: no interaction between them in any nucleotide state

## full-p21: GFP fused full length p21 (aa 1-164) expressed from pEGFP-full-p21
myc-Rho-kinase [7]
  co-immunoprecipitation of myc-tagged Rho-kinase with anti-p21 antibody: only a faint signal could be detected
NIH3T3 cells
  formation of actin stress fibers after the addition of serum: Extensive actin stress fibers were observed
N1E-115 cells [2]; 48 hours after transfection
  cell rounding: decreased cell rounding
N1E-115 cells [2]
  cell population with long neurites / neurite formation: no increase in the cell population that had long neurites
N1E-115 cells [1]
  protein level of cyclin D3: strongly increased
  growth of N1E-115 cells: stopped proliferation
myc-Rho-kinase [3]
  Rho-kinase activity in transfected cells: had no significant effect

## ΔNLS-p21: GFP fused p21 with loss of nuclear localization signal (aa 1-140) expressed from pEGFP-ΔNLS-p21
myc-Rho-kinase [7]
  co-immunoprecipitation of myc-tagged Rho-kinase with anti-p21 antibody: efficiently precipitated myc-tagged Rho-kinase
NIH3T3 cells
  formation of actin stress fibers after the addition of serum: had little stress fiber formation
N1E-115 cells [2]; 48 hours after transfection
  cells that extended long neurites: more than 45%
  increase of cells with long neurites compared to the control: 3.1 -fold
N1E-115 cells [1]
  phosphorylation state of pRb: hyperphosphorylated pRb remained predominant
  protein level of cyclin D3: no change in the expression
  growth of N1E-115 cells: proliferated until 48 hours after transfection
Hippocampal neurons
  number of primary processes: no change
Hippocampal neurons; control 1.3
  number of branch points per neuron: 2.6 (±0.3 SEM)
Hippocampal neurons; control 66.3
  axonal length (longest neurite per neuron): 162.9 μm
Hippocampal neurons; control 135.9
  total neurite length per neuron: 307.2 μm
